Source: patent publication US20230047027A1, “COMPOSITIONS AND METHODS USING CANNABINOID COMPOUNDS FOR REGULATING GASTRIC ACID SECRETION TO TREAT GASTROESOPHAGEAL REFLUX DISEASE AND RELATED CONDITIONS” (Demetrix, Inc., priority 2021, published 2023)
Where two headings read alike, the source gives them in different places.

Columns and labels:
H2 receptor [1] = biological target: T1, H2 receptor (Homo sapiens, UniProt P25021); assay: GPCR reactivity screen (PathHunter β-Arrestin GPCR assay), antagonist mode; assay type: cell-based; conditions: for H2 Receptor Antagonist Activity (percent inhibition): single assay run, pre-incubation with cannabinoid, then agonist challenge at EC80, test concentration not given, about 60% or higher = strong activity; for H2 antagonist activity in the GPCR reactivity screen (in words): summary of Table 1; for effect on sensitivity to histamine (in words): Table 1, negative inhibition
T1 sequence (P25021 whole entry): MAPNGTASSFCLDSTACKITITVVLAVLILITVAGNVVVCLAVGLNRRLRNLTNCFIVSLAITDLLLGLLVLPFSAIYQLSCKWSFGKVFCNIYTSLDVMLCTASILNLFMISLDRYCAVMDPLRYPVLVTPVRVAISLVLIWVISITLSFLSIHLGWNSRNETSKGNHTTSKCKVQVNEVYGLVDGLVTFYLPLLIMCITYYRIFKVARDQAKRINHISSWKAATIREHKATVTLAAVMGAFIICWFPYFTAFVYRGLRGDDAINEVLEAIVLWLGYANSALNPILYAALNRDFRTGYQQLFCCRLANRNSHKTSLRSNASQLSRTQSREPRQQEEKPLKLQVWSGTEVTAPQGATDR
Protocol: To evaluate the H2 antagonist activity of the cannabinoid compounds, a GPCR reactivity assay was performed. The evaluated cannabinoid compounds were: CBN, THCV, CBDVA, CBG, CBL, CBC, CBDV, CBDA, CBD, CBGA, (+)-CBD, CBG-C4, CBD-C1, CBD-C2, CBGV, CBGA-C4, CBGVA, CBCA, and CBLA. Tiotidine was used as the control.
(§1) A single assay was run. In each run, PathHunter® cell lines were removed from a freezer stock and seeded at a volume of 20 μL into white walled, 384-well microplates and incubated at 37° C. Each cell was pre-incubated with the cannabinoid compound followed by an agonist challenge at the EC80 concentration. […] were then diluted to generate a 5x sample in assay buffer. 5 μL of the 5x sample was then added to cells and incubated at 37° C. for 30 minutes. Finally, 5 μL of 6x EC80 agonist in assay buffer were added to the cells and incubated at 37° C. for 90 minutes or 180 minutes. The assay signal was generated through addition of 12.5 μL or 15 μL (50% V/V) of a detection reagent cocktail followed by a one hour incubation time at room temperature. Microplates were read following signal generation with a PerkinElmer Envision™ (PerkinElmer Inc., Waltham, Mass.) for chemiluminescent signal detection. Reactivity was analyzed using the CBIS data analysis suite (ChemInnovation, CA) where RLU refers to the raw measured values. The percent inhibition was calculated using the formula: % Inhibition=100%*(1−mean RLU of test sample−mean RLU of control)/(mean RLU of EC80 control−mean RLU of vehicle control).
The percent inhibition is depicted. As used herein, strong activity against a receptor is considered a percent activity of about 60% or higher. Higher results for antagonism against the H2 receptor are considered better.

H2 receptor [2] = biological target: T1, H2 receptor; assay: IC50 antagonist activity screen (PathHunter β-Arrestin GPCR assay); assay type: cell-based; conditions: for Emax / Maximum inhibition (%): maximum inhibition (antagonism) from IC50 curves, about 60% or higher = strong activity; for Emax: read-out: IC50 (Inhibition - Max Response)
Excerpt: It has additionally been discovered that the alkyl side chain length of cannabinoid compounds can influence the effect the cannabinoid compounds have on the GPCR receptors. For example, it has been discovered that increasing the length of the alkyl side chain, generally increases the antagonism of CBG and CBD to the H2 receptor. […] The RC50 value indicates the value at which the cannabinoid reached the reference compound's 50% effective concentration.
as §1
Based on the results of the GPCR reactivity screen, and IC50 antagonist activity screen was run against the H2 receptor. The IC50 antagonist activity screen was run for each of CBG, CBC, CBL, CBN, CBDV, CBD, CBD-C1, CBD-C2, (+)-CBD, CBG-C6, CBG-C7, CBG-C9, CBD-C6, CBD-C7, CBD-C9, CBGA-C6, CBGA-C7, and CBGA-C9. IC50 curves were measured using the same GPCR assay, PathHunter® β-Arrestin from Eurofins DiscoverX Products (Fremont, Calif.), as the GPCR reactivity screen. As used herein, strong activity against a receptor is considered a maximum activity of about 60% or higher. Higher results for antagonism against the H2 receptor are considered better.

[3] = value at which the cannabinoid reached the reference compound's (tiotidine) 50% effective concentration, H2 receptor antagonist mode, read-out: RC50 (the source's name)

Compound: CCCCCc1cc(O)c2c(c1)OC(C)(CCC=C(C)C)C=C2 (stereo not shown) [CBC, cannabichromene]
- H2 Receptor Antagonist Activity (percent inhibition) (H2 receptor [1]): 117%
- IC50 (H2 receptor [2]): 2.63 µM
- Emax (H2 receptor [2]): 62%

Compound: CCCCCc1cc2c(c(O)c1C(=O)O)C=CC(C)(CCC=C(C)C)O2 (stereo not shown) [CBCA, cannabichromenic acid]
- H2 Receptor Antagonist Activity (percent inhibition) (H2 receptor [1]): 12%
- H2 antagonist activity in the GPCR reactivity screen (in words) (H2 receptor [1]): did not demonstrate H2 antagonist activity

Compound: C=C(C)[C@@H]1CCC(C)=C[C@H]1c1c(O)cc(CCCCC)cc1O [CBD, cannabidol]
- Maximum inhibition (%) (H2 receptor [2]): 64
- IC50 (H2 receptor [2]; [3]): 0.83 µM

Compound: C=C(C)[C@@H]1CCC(C)=C[C@H]1c1c(O)cc(C)cc1O [CBD-C1, cannabidiorcol]
- H2 Receptor Antagonist Activity (percent inhibition) (H2 receptor [1]): 47%
- H2 antagonist activity in the GPCR reactivity screen (in words) (H2 receptor [1]): did not demonstrate H2 antagonist activity
- Maximum inhibition (%) (H2 receptor [2]): 53
- IC50 (H2 receptor [2]; [3]): > 10 µM

Compound: C=C(C)[C@@H]1CCC(C)=C[C@H]1c1c(O)cc(CC)cc1O [CBD-C2, cannabidol-C2]
- Maximum inhibition (%) (H2 receptor [2]): 71
- IC50 (H2 receptor [2]; [3]): 5.22 µM

Compound: C=C(C)[C@@H]1CCC(C)=C[C@H]1c1c(O)cc(CCCCCC)cc1O [CBD-C6, cannabidol hexyl]
- Maximum inhibition (%) (H2 receptor [2]): 80
- IC50 (H2 receptor [2]; [3]): 0.46 µM

Compound: C=C(C)[C@@H]1CCC(C)=C[C@H]1c1c(O)cc(CCCCCCC)cc1O [CBD-C7, cannabidol heptyl]
- Maximum inhibition (%) (H2 receptor [2]): 74
- IC50 (H2 receptor [2]; [3]): 0.38 µM

Compound: C=C(C)[C@@H]1CCC(C)=C[C@H]1c1c(O)cc(CCCCCCCCC)cc1O [CBD-C9, cannabidol nonyl]
- Maximum inhibition (%) (H2 receptor [2]): 56
- IC50 (H2 receptor [2]; [3]): 0.1 µM

Compound: C=C(C)[C@@H]1CCC(C)=C[C@H]1c1c(O)cc(CCCCC)c(C(=O)O)c1O [CBDA, cannabidiolic acid]
- H2 Receptor Antagonist Activity (percent inhibition) (H2 receptor [1]): 4%
- H2 antagonist activity in the GPCR reactivity screen (in words) (H2 receptor [1]): did not demonstrate H2 antagonist activity

Compound: C=C(C)[C@@H]1CCC(C)=C[C@H]1c1c(O)cc(CCC)cc1O [CBDV, cannabidivarin]
- Emax (H2 receptor [2]): 75%
- IC50 (H2 receptor [2]; [3]): 4.5 µM

Compound: C=C(C)[C@@H]1CCC(C)=C[C@H]1c1c(O)cc(CCC)c(C(=O)O)c1O [CBDVA, cannabidivarinic acid]
- H2 Receptor Antagonist Activity (percent inhibition) (H2 receptor [1]): 12%
- H2 antagonist activity in the GPCR reactivity screen (in words) (H2 receptor [1]): did not demonstrate H2 antagonist activity

Compound: CCCCCc1cc(O)c(C/C=C(\C)CCC=C(C)C)c(O)c1 [CBG, cannabigerol]
- Emax (H2 receptor [2]): 21%
- IC50 (H2 receptor [2]; [3]): > 10 µM

Compound: CCCCc1cc(O)c(CC=C(C)CCC=C(C)C)c(O)c1 [CBG-C4, cannabigerol butyl]
- effect on sensitivity to histamine (in words) (H2 receptor [1]): increasing sensitivity to histamine
- H2 Receptor Antagonist Activity (percent inhibition) (H2 receptor [1]): −62%
- H2 antagonist activity in the GPCR reactivity screen (in words) (H2 receptor [1]): did not demonstrate H2 antagonist activity

Compound: CCCCCCc1cc(O)c(C/C=C(\C)CCC=C(C)C)c(O)c1 [CBG-C6, cannabigerol hexyl]
- Maximum inhibition (%) (H2 receptor [2]): 84
- IC50 (H2 receptor [2]; [3]): > 10 µM

Compound: CCCCCCCc1cc(O)c(C/C=C(\C)CCC=C(C)C)c(O)c1 [CBG-C7, cannabigerol heptyl]
- Maximum inhibition (%) (H2 receptor [2]): 93
- IC50 (H2 receptor [2]; [3]): 3.39 µM

Compound: CCCCCCCCCc1cc(O)c(C/C=C(\C)CCC=C(C)C)c(O)c1 [CBG-C9, cannabigerol nonyl]
- Maximum inhibition (%) (H2 receptor [2]): 96
- IC50 (H2 receptor [2]; [3]): 2.89 µM

Compound: CCCCCc1cc(O)c(C/C=C(\C)CCC=C(C)C)c(O)c1C(=O)O [CBGA, cannabigerolic acid]
- effect on sensitivity to histamine (in words) (H2 receptor [1]): increasing sensitivity to histamine
- H2 Receptor Antagonist Activity (percent inhibition) (H2 receptor [1]): −3%
- H2 antagonist activity in the GPCR reactivity screen (in words) (H2 receptor [1]): did not demonstrate H2 antagonist activity

Compound: CCCCc1cc(O)c(C/C=C(\C)CCC=C(C)C)c(O)c1C(=O)O [CBGA-C4, cannabigerolic acid butyl]
- H2 Receptor Antagonist Activity (percent inhibition) (H2 receptor [1]): 16%
- H2 antagonist activity in the GPCR reactivity screen (in words) (H2 receptor [1]): did not demonstrate H2 antagonist activity

Compound: CCCCCCc1cc(O)c(C/C=C(\C)CCC=C(C)C)c(O)c1C(=O)O [CBGA-C6, cannabigerolic acid hexyl]
- Maximum inhibition (%) (H2 receptor [2]): 9
- IC50 (H2 receptor [2]; [3]): > 10 µM

Compound: CCCCCCCc1cc(O)c(C/C=C(\C)CCC=C(C)C)c(O)c1C(=O)O [CBGA-C7, cannabigerolic acid heptyl]
- Maximum inhibition (%) (H2 receptor [2]): 17
- IC50 (H2 receptor [2]; [3]): > 10 µM

Compound: CCCCCCCCCc1cc(O)c(C/C=C(\C)CCC=C(C)C)c(O)c1C(=O)O [CBGA-C9, cannabigerolic acid nonyl]
- Maximum inhibition (%) (H2 receptor [2]): 11
- IC50 (H2 receptor [2]; [3]): > 10 µM

Compound: CCCc1cc(O)c(C/C=C(\C)CCC=C(C)C)c(O)c1 [CBGV, cannabigerivarin]
- H2 Receptor Antagonist Activity (percent inhibition) (H2 receptor [1]): 10%
- H2 antagonist activity in the GPCR reactivity screen (in words) (H2 receptor [1]): did not demonstrate H2 antagonist activity

Compound: CCCc1cc(O)c(C/C=C(\C)CCC=C(C)C)c(O)c1C(=O)O [CBGVA, cannabigerovarinic acid]
- H2 Receptor Antagonist Activity (percent inhibition) (H2 receptor [1]): 2%
- H2 antagonist activity in the GPCR reactivity screen (in words) (H2 receptor [1]): did not demonstrate H2 antagonist activity

Compound: CCCCCc1cc(O)c2c(c1)OC1(C)CCC3C1C2C3(C)C (stereo not shown) [CBL, cannabicyclol]
- IC50 (H2 receptor [2]): 1.17 µM
- Emax (H2 receptor [2]): 64%

Compound: CCCCCc1cc2c(c(O)c1C(=O)O)C1C3C(CCC3(C)O2)C1(C)C (stereo not shown) [CBLA, cannabicyclolic acid]
- H2 Receptor Antagonist Activity (percent inhibition) (H2 receptor [1]): 11%
- H2 antagonist activity in the GPCR reactivity screen (in words) (H2 receptor [1]): did not demonstrate H2 antagonist activity

Compound: CCCCCc1cc(O)c2c(c1)OC(C)(C)c1ccc(C)cc1-2 [CBN, cannabinol]
- IC50 (H2 receptor [2]): > 10 µM
- Emax (H2 receptor [2]): 12%

Compound: CCCc1cc(O)c2c(c1)OC(C)(C)[C@@H]1CCC(C)=C[C@@H]21 [THCV, tetrahydrocannabivarin]
- effect on sensitivity to histamine (in words) (H2 receptor [1]): increasing sensitivity to histamine
- H2 Receptor Antagonist Activity (percent inhibition) (H2 receptor [1]): −22%
- H2 antagonist activity in the GPCR reactivity screen (in words) (H2 receptor [1]): did not demonstrate H2 antagonist activity

Compound: (+)-cannabidiol [(+)-CBD]
- H2 Receptor Antagonist Activity (percent inhibition) (H2 receptor [1]): 45%
- H2 antagonist activity in the GPCR reactivity screen (in words) (H2 receptor [1]): did not demonstrate H2 antagonist activity
- Maximum inhibition (%) (H2 receptor [2]): 42
- IC50 (H2 receptor [2]; [3]): > 10 µM
